Assay results reported in ChEMBL document CHEMBL1201862, “PubChem BioAssay data set” (2004).
Several values for one entry are separate records, joined by “and”; a condition that tells them apart may be missing. Equal entries are not always repeated.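 Method: 48-hour compound exposure of cells in 96-well plates, five concentrations, linear interpolation of endpoints. The concentration for 50% growth inhibition is given as GI50.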 Activity calls are given as the source filed them. No stated cut-off is given here; in the data, active = GI50 up to about 1.1 µM and inactive = higher.

How the values were obtained:
Assay in all cases: growth of human tumour cells (NCI), 48 h
T47D = system: T47D
SNB-75 = system: SNB-75
NCI-H23 = system: NCI-H23
LOX IMVI = system: LOX IMVI
CCRF-CEM = system: CCRF-CEM
SK-MEL-2 = system: SK-MEL-2
HCT-116 = system: HCT-116
MOLT-4 = system: MOLT-4
786-0 = system: 786-0
KM12 = system: KM12
MDA-MB-231 = system: MDA-MB-231
OVCAR-4 = system: OVCAR-4
K562 = system: K562
COLO 205 = system: COLO 205
HT-29 = system: HT-29
OVCAR-3 = system: OVCAR-3
MDA-N = system: MDA-N
TK-10 = system: TK-10
NCI/ADR-RES = system: NCI/ADR-RES
A498 = system: A498
M14 = system: M14
UO-31 = system: UO-31
OVCAR-8 = system: OVCAR-8
SNB-19 = system: SNB-19
SF-539 = system: SF-539
HCT-15 = system: HCT-15
NCI-H460 = system: NCI-H460
SK-MEL-28 = system: SK-MEL-28
ACHN = system: ACHN
EKVX = system: EKVX
SF-295 = system: SF-295
HOP-92 = system: HOP-92
A549 = system: A549
Hs-578T = system: Hs-578T
SK-MEL-5 = system: SK-MEL-5
NCI-H226 = system: NCI-H226
SK-OV-3 = system: SK-OV-3
MCF7 = system: MCF7
PC-3 = system: PC-3
DU-145 = system: DU-145
MDA-MB-435 = system: MDA-MB-435
IGROV-1 = system: IGROV-1
UACC-257 = system: UACC-257
SN12C = system: SN12C
OVCAR-5 = system: OVCAR-5
SW-620 = system: SW-620
CAKI-1 = system: CAKI-1
Malme-3M = system: Malme-3M
HCC 2998 = system: HCC 2998
U-251 = system: U-251
RXF 393 = system: RXF 393
SF-268 = system: SF-268
BT-549 = system: BT-549
HL-60 = system: HL-60
UACC-62 = system: UACC-62
RPMI-8226 = system: RPMI-8226
SR = system: SR
HOP-62 = system: HOP-62
NCI-H522 = system: NCI-H522

Measured: GI50

N#CC(c1ccccc1)N(CCc1ccccc1)C(=O)c1ccc(C(=O)N(CCc2ccccc2)C(C#N)c2ccccc2)cc1 (configuration not stated)
inactive: T47D 16.9 µM | SNB-75 19.3 µM | NCI-H23 25.5 µM | LOX IMVI 17.9 µM | CCRF-CEM 26.1 µM | SK-MEL-2 19.6 µM | HCT-116 14.3 µM | MOLT-4 > 10 µM | 786-0 22.6 µM | KM12 32.9 µM | MDA-MB-231 24.6 µM | OVCAR-4 18.9 µM | K562 20.9 µM | COLO 205 21.9 µM | HT-29 19 µM | OVCAR-3 17.1 µM | MDA-N 24 µM | TK-10 13.9 µM | NCI/ADR-RES 17.9 µM | A498 30.5 µM | M14 24.4 µM | UO-31 19.4 µM | OVCAR-8 17.6 µM | SNB-19 30.5 µM | SF-539 19.5 µM | NCI-H460 18.5 µM | SK-MEL-28 22.8 µM | ACHN 24 µM | EKVX 34.4 µM | SF-295 18.5 µM | HOP-92 12.9 µM | A549 26.7 µM | Hs-578T 12.9 µM | SK-MEL-5 13.5 µM | NCI-H226 17 µM | SK-OV-3 31.9 µM | MCF7 30.3 µM | PC-3 21.7 µM | DU-145 42.6 µM | MDA-MB-435 22.9 µM | IGROV-1 23.9 µM | UACC-257 18.1 µM | SN12C 19.5 µM | OVCAR-5 19.8 µM | SW-620 22.9 µM | CAKI-1 30.6 µM | Malme-3M 19.3 µM | HCC 2998 15.3 µM | U-251 24.3 µM | RXF 393 21.3 µM | SF-268 22 µM | BT-549 14.5 µM | HL-60 22.9 µM | UACC-62 15.5 µM
18.6 µM: HCT-15

COC1OC(COC(=O)NCCCCC(=O)C(F)(F)C(F)(F)C(F)(F)C(F)(F)C(F)(F)C(F)(F)C(F)(F)F)C(O)C(O)C1O (configuration not stated)
inactive: RPMI-8226 28.9 µM and 29.9 µM | SR 30.3 µM and 42.9 µM | T47D 19.6 µM and 15.2 µM | SNB-75 14.4 µM and 15.8 µM | NCI-H23 14.8 µM and 17.8 µM | LOX IMVI 14.2 µM and 15.9 µM | SK-MEL-2 22.2 µM and 21.8 µM | HCT-116 15 µM and 19 µM | 786-0 16.4 µM and 16.5 µM | KM12 17.5 µM and 18.7 µM | MDA-MB-231 23.1 µM and 23.9 µM | OVCAR-4 15 µM and 16.7 µM | K562 10.6 µM and 16 µM | COLO 205 25.9 µM and 21.8 µM | HT-29 15.8 µM and 13.5 µM | OVCAR-3 15.5 µM and 14.9 µM | MDA-N 24 µM and 26.4 µM | TK-10 16.9 µM and 16.4 µM | NCI/ADR-RES 34.5 µM and 28.4 µM | M14 14.8 µM and 16 µM | UO-31 16.8 µM and 17.1 µM | SNB-19 17.8 µM and 17.9 µM | SF-539 18 µM and 15.5 µM | NCI-H460 22.4 µM and 16.8 µM | SK-MEL-28 17.3 µM and 16.7 µM | ACHN 15.6 µM and 16.4 µM | SF-295 20.7 µM and 19.5 µM | A549 17.9 µM and 15.6 µM | Hs-578T 15.2 µM and 17.7 µM | SK-MEL-5 13.1 µM and 12 µM | SK-OV-3 14.2 µM and 15.8 µM | MCF7 17.6 µM and 18.4 µM | PC-3 12.9 µM and 13.6 µM | MDA-MB-435 15.8 µM and 16.6 µM | IGROV-1 16.5 µM and 14.3 µM | UACC-257 16.9 µM and 16.6 µM | SN12C 19.6 µM and 21.4 µM | OVCAR-5 17.8 µM and 17.5 µM | SW-620 17.1 µM and 15.8 µM | CAKI-1 16.4 µM and 17.2 µM | HOP-62 15 µM and 16.2 µM | Malme-3M 22.8 µM and 20.1 µM | HCC 2998 19.6 µM and 19.5 µM | U-251 19.3 µM and 11.9 µM | RXF 393 13.6 µM and 15.1 µM | SF-268 15.7 µM and 18.2 µM | BT-549 17.6 µM and 17.4 µM | UACC-62 13.7 µM and 14.4 µM
18.5 µM and 19.4 µM: HCT-15

NC(CC1=CCC=CC1)C(=O)O (configuration not stated)
57.9 µM: HCT-15
inactive: RPMI-8226 9.2 µM | SR > 10 µM | T47D > 100 µM | SNB-75 99.5 µM | NCI-H23 > 100 µM | LOX IMVI 91.8 µM | CCRF-CEM 62.8 µM | SK-MEL-2 53.7 µM | HCT-116 55.1 µM | MOLT-4 62.2 µM | 786-0 > 100 µM | KM12 68.2 µM | MDA-MB-231 > 100 µM | OVCAR-4 > 100 µM | K562 28.9 µM | COLO 205 38 µM | HT-29 61.9 µM | OVCAR-3 51.5 µM | MDA-N 59.2 µM | TK-10 > 100 µM | A498 > 100 µM | M14 80.2 µM | UO-31 > 100 µM | OVCAR-8 67.1 µM | SNB-19 > 100 µM | NCI-H460 59.3 µM | SK-MEL-28 80.5 µM | ACHN > 100 µM | EKVX > 100 µM | SF-295 60.3 µM | HOP-92 > 100 µM | A549 74.5 µM | Hs-578T 50.6 µM | SK-MEL-5 > 100 µM | SK-OV-3 98.2 µM | MCF7 47.4 µM | PC-3 45.7 µM | DU-145 > 100 µM | MDA-MB-435 71.8 µM | IGROV-1 67.8 µM | UACC-257 > 100 µM | SN12C > 100 µM | OVCAR-5 > 100 µM | SW-620 > 100 µM | CAKI-1 > 100 µM | HOP-62 > 100 µM | HCC 2998 > 100 µM | U-251 64.4 µM | RXF 393 70.5 µM | SF-268 > 100 µM | BT-549 > 100 µM | UACC-62 > 100 µM

c1ccc(CC2(c3cc4ccccc4[nH]3)OCCO2)nc1
inactive: RPMI-8226 > 100 µM | T47D > 100 µM | SNB-75 12.1 µM | NCI-H23 > 100 µM | LOX IMVI 34.7 µM | CCRF-CEM 83 µM | SK-MEL-2 > 100 µM | HCT-116 > 100 µM | MOLT-4 61.1 µM | 786-0 > 100 µM | KM12 > 100 µM | MDA-MB-231 > 100 µM | K562 50.2 µM | COLO 205 > 100 µM | HT-29 > 100 µM | OVCAR-3 90.6 µM | MDA-N > 100 µM | TK-10 > 100 µM | NCI/ADR-RES > 100 µM | A498 > 100 µM | M14 > 100 µM | UO-31 > 100 µM | OVCAR-8 > 100 µM | SNB-19 > 100 µM | SF-539 > 100 µM | NCI-H460 > 100 µM | SK-MEL-28 > 100 µM | ACHN > 100 µM | EKVX 92.3 µM | SF-295 58.1 µM | HOP-92 > 100 µM | A549 > 100 µM | Hs-578T 51.5 µM | SK-MEL-5 > 100 µM | NCI-H226 18 µM | SK-OV-3 > 100 µM | PC-3 > 100 µM | DU-145 > 100 µM | MDA-MB-435 > 100 µM | IGROV-1 1.95 µM | UACC-257 > 100 µM | NCI-H522 70.8 µM | SN12C > 100 µM | OVCAR-5 > 100 µM | SW-620 > 100 µM | CAKI-1 > 100 µM | HOP-62 > 100 µM | Malme-3M 47.6 µM | U-251 > 100 µM | RXF 393 88.1 µM | SF-268 > 100 µM | BT-549 > 100 µM | HL-60 72.3 µM | UACC-62 > 100 µM
> 100 µM: HCT-15
